Assay results published in article PMC11758220, “Identification of a Privileged Scaffold for Inhibition of Sterol Transport Proteins through the Synthesis and Ring Distortion of Diverse, Pseudo-Natural Products” (ACS Central Science, 2025).

What was measured:
Assay type in all cases: binding
Aster-C = biological target: T1, Aster-C (Homo sapiens, UniProt Q8IYS0); assay: Fluorescence polarisation (FP) competition with NBD-cholesterol, Aster-C; conditions: for Aster-C (FP) inhibition / inhibition at 10 µM: single dose, Dose = 10 µM; for IC50: mean of three experiments run in technical duplicates
T1 construct: -C(318-504); GST (PreScission-cleavable) (N, cleaved yes); made in house; host or cells: E. coli OverExpress C41
Description: (§1) Protein expression constructs
(§2) Human ASTER domains of Aster-A(359-547), -B(364-552) and -C(318-504) were subcloned into a pGEX-6p-2rbs vector, thus introducing the cloning artifact ‘GPLGS’.3 The pGEX-6P-1-GST-OSBP(377- […]
(§3) a gift from James H. Hurley (University of California).4 The pHIS_2His6_Thrombin_STARD4(2-205;C75S) plasmid was a gift from Young Jun Im (Chonnam National University).5 STARD5A was a gift from Nicola Burgess-Brown (Addgene plasmid #42392; http://n2t.net/addgene:42392; […]
(§4) Protein expression and purification […]
(§5) vectors including an N-terminal PreScission-cleavable glutathione S-transferase (GST)-tag were expressed in Escherichia coli (E. coli) OverExpress C41 in Terrific Broth (TB) medium for 16 h at 18 °C after the induction with 0.1 mM isopropyl β-D-1-thiogalactopyranoside (IPTG). Cells were harvested at 3500 × g for 15 minutes and lysed by sonication in buffer containing 50 mM HEPES pH 7.5, 300 mM NaCl, 10 %v/v glycerol, 5 mM dithiothreitol (DTT), 0.1 %v/v Triton X-100 and protease inhibitor mix HP plus (Serva). The lysate was purified by affinity chromatography on a GSTrap FF column (Cytiva) using an ÄKTA Start (Cytiva) in buffer containing 50 mM HEPES pH 7.5, 300 mM NaCl, 10 %v/v glycerol, 5 mM DTT and 0.01 %v/v Triton X-100. The GST-tag was cleaved overnight on the column at 4 °C. The Aster sterol binding domains were further purified by size-exclusion chromatography (SEC) on a HiLoad 16/600 Superdex 75 pg (Cytiva) in buffer containing 20 mM HEPES pH 7.5, 300 mM NaCl, 10 %v/v […]
(§6) STARD5(6-213) harboring an N-terminal His6-Tag were expressed in E. coli BL21(DE3) in Luria-Bertani Broth (LB) medium for approximately 16 h at 18 °C after induction with 0.15 mM IPTG. Cells were harvested at 3500 × g for 15 minutes and lysed by sonication in buffer containing 50 mM HEPES pH 7.5, 150 mM NaCl, 5 %v/v glycerol, 5 mM DTT, 0.1 %v/v Triton X -100 and ethylenediaminetetraacetic acid (EDTA)-free protease inhibitor cocktail (Sigma-Aldrich). The cleared lysate was purified by affinity chromatography on a Ni-NTA Superflow Cartridge (Qiagen) using an ÄKTA Start (Cytiva) in buffer containing 50 mM HEPES pH 7.5, 150 mM NaCl, 5 %v/v glycerol, 5 mM DTT. START domains were eluted by using elution buffer containing 50 mM HEPES pH 7.5, 150 mM NaCl, 5 %v/v glycerol, 5 mM DTT and 500 mM imidazole. Proteins were further purified by SEC on a HiLoad 16/600 Superdex 75 pg (Cytiva) in buffer containing 20 mM HEPES pH 7.5, 150 mM NaCl, 5 %v/v glycerol and 2 mM DTT.
(§7) The ORP domain of human OSBP(377-807) in the pGEX-6p-1 vector with an N-terminal PreScission-cleavable GST-tag was expressed in E. coli OverExpress C41 in LB medium for 16 h at 18 °C after induction with 0.1 mM IPTG. Cells were harvested at 3500 × g for 15 minutes and lysed by sonication in buffer containing 20 mM HEPES pH 7.5, 300 mM NaCl, 10 %v/v glycerol, 5 mM DTT, 0.1 %v/v Triton X-100 and EDTA-free protease inhibitor cocktail (Sigma-Aldrich). The cleared lysate was purified by affinity chromatography on a GSTrap HF column (Cytiva) using an ÄKTA Start (Cytiva) in buffer containing 20 mM HEPES pH 7.5, 300 mM NaCl, 10 %v/v glycerol, 5 mM DTT. OSBP(377 -807) was eluted by using elution buffer containing 20 mM HEPES pH 7.5, 300 mM NaCl, 10 %v/v glycerol, 5 mM DTT and 10 mM reduced glutathione. Proteins were further purified by SEC on a HiLoad 16/600 Superdex 75 pg (Cytiva) using an ÄKTA Explorer (Cytiva) in buffer containing 20 mM HEPES pH 7.5, 150 mM NaCl, 10 %v/v glycerol and 2 mM DTT.
(§8) The ORP domains of human ORP1(534-950) in pET24b(+) and ORP2(49-480) in the pET24b(+) vector including an N-terminal His6-Tag were expressed in E. coli BL21(DE3) in TB medium for approximately 16 h at 18 °C after induction with 0.1 mM IPTG. Cells were collected at 3500 × g for 15 minutes and lysed by sonification in buffer containing 10 mM Tris-HCl pH 8, 300 mM NaCl, 5 % glycerol, 2 mM DTT, 0.1 % Triton X-100 and EDTA-free protease inhibitor cocktail (Sigma-Aldrich). The cleared […]

Aster-B = biological target: T2, Aster-B (Homo sapiens, UniProt Q3KR37); assay: Fluorescence polarisation (FP) competition with NBD-cholesterol, Aster-B; conditions: for Aster-B (FP) inhibition / inhibition at 10 µM: single dose, Dose = 10 µM; for IC50: mean of three experiments run in technical duplicates
T2 construct: -B(364-552); GST (PreScission-cleavable) (N, cleaved yes); made in house; host or cells: E. coli OverExpress C41
T2 sequence (Q3KR37 364-552): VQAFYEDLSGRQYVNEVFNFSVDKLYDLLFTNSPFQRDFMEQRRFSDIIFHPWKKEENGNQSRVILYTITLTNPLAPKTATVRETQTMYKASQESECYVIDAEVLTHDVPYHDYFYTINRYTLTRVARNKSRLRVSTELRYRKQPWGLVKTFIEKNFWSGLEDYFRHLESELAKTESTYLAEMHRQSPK
Description: as §1, §2, §3, §4, §5, §6, §7, §8

STARD3 = biological target: T3, STARD3 (Homo sapiens, UniProt Q14849); assay: Differential scanning fluorimetry (DSF), STARD3; conditions: single dose, Dose = 10 µM
T3 construct: STARD3(216-444); made in house; host or cells: E. coli BL21(DE3)
T3 sequence (Q14849 216-444): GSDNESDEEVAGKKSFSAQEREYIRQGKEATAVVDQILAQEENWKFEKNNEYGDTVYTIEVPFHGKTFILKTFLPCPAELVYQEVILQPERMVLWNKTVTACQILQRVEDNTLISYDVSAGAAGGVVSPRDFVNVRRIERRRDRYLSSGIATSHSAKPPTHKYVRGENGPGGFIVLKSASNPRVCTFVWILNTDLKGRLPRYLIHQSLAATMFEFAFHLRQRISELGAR
Description: as §1, §2, §3, §4, §5, §6, §7, §8

T1 sequence (Q8IYS0 318-504): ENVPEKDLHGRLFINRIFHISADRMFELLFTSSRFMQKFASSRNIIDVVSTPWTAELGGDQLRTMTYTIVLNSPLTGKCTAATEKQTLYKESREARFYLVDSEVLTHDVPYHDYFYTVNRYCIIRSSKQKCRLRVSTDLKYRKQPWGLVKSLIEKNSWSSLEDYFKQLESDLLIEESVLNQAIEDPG

| Compound | Aster-C (FP) inhibition (Aster-C) [%] | Aster-B (FP) inhibition (Aster-B) [%] | STARD3 (DSF) ΔTm (STARD3) [°C] | inhibition at 10 µM (Aster-C) [%] | inhibition at 10 µM (Aster-B) [%] | ΔTm at 10 µM (STARD3) [°C] | IC50 (Aster-C) [µM] | IC50 (Aster-B) [µM] |
| --- | --- | --- | --- | --- | --- | --- | --- | --- |
| Cc1nc2c(s1)CC[C@@H]1C[C@H](O)CC[C@]21C [Compound 8b] | -1.6 | 7.5 | 0.0139 |  |  |  |  |  |
| C[C@]12CC[C@@H](O)C[C@H]1CCc1sc(-c3cccnc3)nc12 [Compound 8c] | 0 | 7 | 0.345 |  |  |  |  |  |
| COc1ccc(-c2nc3c(s2)CC[C@@H]2C[C@H](O)CC[C@]32C)cc1 [Compound 8d] |  |  |  | 0.8 | 6 | 0.5 |  |  |
| C[C@]12CC[C@@H](O)C[C@H]1CCc1sc(-c3ccc(F)cc3)nc12 [Compound 8e] | -2.4 | 8 | 0.0572 |  |  |  |  |  |
| C[C@]12CC[C@@H](O)C[C@H]1CCc1[nH]c(-c3ccccc3)nc12 [Compound 9] |  |  |  | -3.2 | 9 | -0.0297 |  |  |
| C[C@]12CC[C@@H](O)C[C@H]1CCc1c2[nH]c2ccccc12 [Compound 10a] | 0.8 | 7.5 | -0.188 |  |  |  |  |  |
| C[C@]12CC[C@@H](O)C[C@H]1CCc1c2[nH]c2ccc(Br)cc12 [Compound 10b] | -5 | -2.5 | -0.0462 |  |  |  |  |  |
| C[C@]12CC[C@@H](O)C[C@H]1CCc1c2[nH]c2ccc(Cl)cc12 [Compound 10c] | -8 | -5 | -0.121 |  |  |  |  |  |
| C[C@]12CC[C@@H](O)C[C@H]1CCc1c2[nH]c2ccc(F)cc12 [Compound 10d] | -3.2 | 0.833 | -0.115 |  |  |  |  |  |
| Cc1ccc2[nH]c3c(c2c1)CC[C@@H]1C[C@H](O)CC[C@]31C [Compound 10e] |  |  |  | 1.6 | 1.67 | 0.0774 |  |  |
| COc1ccc2[nH]c3c(c2c1)CC[C@@H]1C[C@H](O)CC[C@]31C [Compound 10f] |  |  |  | 0 | 13 | -0.0471 |  |  |
| CC12CCC(O)CC1CCc1c2[nH]c2ccc(C(F)(F)F)cc12 (stereo not shown) [Compound 10g] |  |  |  | -5 | -2.5 | 0.227 |  |  |
| C[C@]12CC[C@@H](O)C[C@H]1CCc1c2[nH]c2ccc(I)cc12 [Compound 10h] | 24 | 32 | 0.1 |  |  |  |  |  |
| C[C@]12CC[C@@H](O)C[C@H]1CCc1c2[nH]c2c(F)cc(Cl)cc12 [Compound 10i] |  |  |  | -1.6 | -4 | 0.0372 |  |  |
| Cc1cc(C)c2c3c([nH]c2c1)[C@@]1(C)CC[C@@H](O)C[C@H]1CC3 [Compound 10j] |  |  |  | 0.8 | 16 | -0.108 |  |  |
| CCOC(=O)c1ccc2[nH]c3c(c2c1)CC[C@@H]1C[C@H](O)CC[C@]31C [Compound 10k] | -6 | -4 | 0.08 |  |  |  |  |  |
| C[C@]12CC[C@@H](O)C[C@H]1CCC(=O)c1ccccc1NC2=O [Compound 11a] | -3.2 | 10 | -0.0327 |  |  |  |  |  |
| C[C@]12CC[C@@H](O)C[C@H]1CCC(=O)c1cc(Br)ccc1NC2=O [Compound 11b] |  |  |  | -2.4 | 7.5 | -0.0537 |  |  |
| Cc1ccc2c(c1)C(=O)CC[C@@H]1C[C@H](O)CC[C@]1(C)C(=O)N2 [Compound 11c] |  |  |  | -5.6 | 6 | -0.0522 |  |  |
| COc1ccc2c(c1)C(=O)CC[C@@H]1C[C@H](O)CC[C@]1(C)C(=O)N2 [Compound 11d] |  |  |  | 1.6 | 4 | -0.119 |  |  |
| C[C@]12CC[C@@H](O)C[C@H]1CCC(=O)c1cc(C(F)(F)F)ccc1NC2=O [Compound 11e] |  |  |  | -1.6 | 7 | -0.0434 |  |  |
| C[C@]12CC[C@@H](O)C[C@H]1CCC(=O)c1cc(Cl)cc(F)c1NC2=O [Compound 11f] | -0.8 | 11 | -0.0767 |  |  |  |  |  |
| Cc1cc(C)c2c(c1)NC(=O)[C@@]1(C)CC[C@@H](O)C[C@H]1CCC2=O [Compound 11g] |  |  |  | -0.8 | 11 | -0.0181 |  |  |
| Cc1ccc2[nH]c3c(c(=O)c2c1)C[C@@H]1C[C@H](O)CC[C@]31C [Compound 12] |  |  |  | 0 | 11 | -0.0694 |  |  |
| Cc1ccc2c(c1)[C@]1(O)CC[C@@H]3C[C@H](O)CC[C@]3(C)C1=N2 [Compound 14a] |  |  |  | -1 | 12 | 0.2 |  |  |
| COc1ccc2c(c1)[C@]1(O)CC[C@@H]3C[C@H](O)CC[C@]3(C)C1=N2 [Compound 14b] |  |  |  | 3.2 | 17 | 0.0447 |  |  |
| Cc1cc(C)c2c(c1)N=C1[C@@]2(O)CC[C@@H]2C[C@H](O)CC[C@]12C [Compound 14c] |  |  |  | 3.2 | 17 | 0.0424 |  |  |
| C[C@]12CC[C@@H]3C[C@H]1CC[C@@]21C(=Nc2ccccc21)O3 [Compound 15a] |  |  |  | -4 | 13 | -0.061 | > 80 | > 80 |
| CC12CCC3CC1CCC21C(=Nc2ccc(Cl)cc21)O3 (stereo not shown) [Compound 15c] |  |  |  | -4 | 12 | 0.0794 | > 80 | > 80 |
